Source: ChEMBL document CHEMBL1131803, “Novel benzopyrano[3,4-c]pyrrole derivatives as potent and selective dopamine D3 receptor antagonist” (Bioorg Med Chem Lett, 1999)

Assays:
[1] = biological target: D(3) dopamine receptor (Homo sapiens, UniProt P35462); assay: Ability to displace [125I]iodosulpiride from human dopamine D3 (hD3) receptor transfected into CHO cells.; type: cell-based
[2] = biological target: D(2) dopamine receptor (Homo sapiens, UniProt P14416); assay: Ability to displace [125I]iodosulpiride from human dopamine D2 (hD2) receptor transfected into CHO cells.; type: cell-based
Sequence of D(2) dopamine receptor (P14416 whole entry): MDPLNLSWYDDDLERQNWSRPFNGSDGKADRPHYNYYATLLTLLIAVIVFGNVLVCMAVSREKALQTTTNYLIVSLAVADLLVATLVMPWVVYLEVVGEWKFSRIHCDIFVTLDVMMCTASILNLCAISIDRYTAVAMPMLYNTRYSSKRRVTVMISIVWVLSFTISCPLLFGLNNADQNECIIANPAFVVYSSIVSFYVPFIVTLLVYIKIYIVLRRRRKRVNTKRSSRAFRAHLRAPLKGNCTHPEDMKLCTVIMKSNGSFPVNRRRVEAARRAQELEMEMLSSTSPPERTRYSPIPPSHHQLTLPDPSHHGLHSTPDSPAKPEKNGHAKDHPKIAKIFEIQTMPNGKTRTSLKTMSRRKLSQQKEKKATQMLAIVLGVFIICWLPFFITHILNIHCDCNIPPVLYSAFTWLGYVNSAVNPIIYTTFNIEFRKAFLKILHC

Sequence of D(3) dopamine receptor (P35462 whole entry): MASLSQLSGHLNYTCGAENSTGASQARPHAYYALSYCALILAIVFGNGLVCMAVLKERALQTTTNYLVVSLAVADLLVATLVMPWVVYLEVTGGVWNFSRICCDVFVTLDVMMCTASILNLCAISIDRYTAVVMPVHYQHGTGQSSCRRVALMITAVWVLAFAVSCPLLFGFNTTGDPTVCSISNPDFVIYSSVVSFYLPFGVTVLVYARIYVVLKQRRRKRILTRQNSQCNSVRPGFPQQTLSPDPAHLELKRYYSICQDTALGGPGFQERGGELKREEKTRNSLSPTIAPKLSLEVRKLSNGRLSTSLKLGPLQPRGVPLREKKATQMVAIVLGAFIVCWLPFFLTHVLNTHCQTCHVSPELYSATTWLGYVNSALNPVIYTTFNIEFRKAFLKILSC

| Ki [1] | Ki [2] | Structure (SMILES) |
| --- | --- | --- |
| 0.794 nM | 79.4 nM | N#Cc1ccc2c(c1)C1CN(CCCCNC(=O)c3ccc(-c4ccccc4)cc3)CC1CO2 (stereo not drawn) |
| 2.51 nM | 20 nM | N#Cc1ccc2c(c1)[C@H]1CN(Cc3ccccc3)C[C@@H]1CO2 |
| 79.4 nM | 200 nM | COc1ccc2c(c1)C1CN(Cc3ccccc3)CC1CO2 (stereo not drawn) |
| 6.31 nM | 31.6 nM | N#Cc1ccc2c(c1)[C@@H]1CN(Cc3ccccc3)C[C@H]1CO2 |
| 20 nM | 31.6 nM | CC(=O)Nc1ccc(CN2C[C@H]3COc4ccc(C#N)cc4[C@@H]3C2)cc1 |
| 1 nM | 31.6 nM | CC(=O)Nc1ccc(CCN2C[C@@H]3COc4ccc(C#N)cc4[C@H]3C2)cc1 |
| 0.794 nM | 20 nM | CC(=O)c1ccc(C(=O)Nc2ccc(CCN3CC4COc5ccc(C#N)cc5C4C3)cc2)cc1 (stereo not drawn) |
| 1.58 nM | 25.1 nM | CS(=O)(=O)Nc1ccc(CCN2CC3COc4ccc(C#N)cc4C3C2)cc1 (stereo not drawn) |
| 79.4 nM | 251 nM | COc1ccc2c(c1)OCC1CN(Cc3ccccc3)CC21 (stereo not drawn) |
| 1 nM | 39.8 nM | CC(=O)Nc1ccc(CCN2CC3COc4ccc(C#N)cc4C3C2)cc1 (stereo not drawn) |
| 10 nM | 12.6 nM | CC(=O)Nc1ccc(CN2C[C@@H]3COc4ccc(C#N)cc4[C@H]3C2)cc1 |
| 3.16 nM | 39.8 nM | CC(=O)Nc1ccc(CCN2C[C@H]3COc4ccc(C#N)cc4[C@@H]3C2)cc1 |
| 6.31 nM | 25.1 nM | N#Cc1ccc2c(c1)[C@H]1CN(Cc3ccc(F)cc3)C[C@@H]1CO2 |
| 7.94 nM | 79.4 nM | N#Cc1ccc2c(c1)C1CN(Cc3ccc(F)cc3)CC1CO2 (stereo not drawn) |
| 12.6 nM | 25.1 nM | CC(=O)Nc1ccc(CN2CC3COc4ccc(C#N)cc4C3C2)cc1 (stereo not drawn) |
| 15.8 nM | 39.8 nM | N#Cc1ccc2c(c1)[C@@H]1CN(Cc3ccc(F)cc3)C[C@H]1CO2 |
| 0.316 nM | 31.6 nM | N#Cc1ccc2c(c1)[C@H]1CN(CCCCNC(=O)c3ccc(-c4ccccc4)cc3)C[C@@H]1CO2 |
| 0.631 nM | 50.1 nM | N#Cc1ccc2c(c1)[C@@H]1CN(CCCCNC(=O)c3ccc(-c4ccccc4)cc3)C[C@H]1CO2 |
| 100 nM | 316 nM | N#Cc1ccc2c(c1)C1CN(Cc3ccccc3)CC1CO2 (cis isomer) |
| 0.2 nM | 20 nM | N#Cc1ccc2c(c1)[C@H]1CN(CCCCNC(=O)c3ccc(-c4ccc(N)cc4)cc3)C[C@@H]1CO2 (single isomer, unassigned) |
| 100 nM | 501 nM | Brc1ccc2c(c1)C1CN(Cc3ccccc3)CC1CO2 (stereo in doubt; cis) |
| 15.8 nM | 50.1 nM | Brc1ccc2c(c1)C1CN(Cc3ccccc3)CC1CO2 (stereo in doubt; trans) |
| 15.8 nM | 31.6 nM | Clc1ccc2c(c1)C1CN(Cc3ccccc3)CC1CO2 (trans isomer) |
| 25.1 nM | 501 nM | N#Cc1ccc2c(c1)OCC1CN(Cc3ccccc3)CC21 (trans isomer) |
| 3.98 nM | 25.1 nM | N#Cc1ccc2c(c1)C1CN(Cc3ccccc3)CC1CO2 (trans isomer) |
| 7.94 nM | 25.1 nM | Fc1ccc2c(c1)C1CN(Cc3ccccc3)CC1CO2 (trans isomer) |
| 126 nM | 316 nM | c1ccc(CN2CC3COc4ccccc4C3C2)cc1 (trans isomer) |
| 6.31 nM | 10 nM | N#Cc1ccc2c(c1)C1CN(Cc3ccccc3)CC1CC2 (trans isomer) |

| Structure (SMILES) | Ki [1] | Ki [2] |
| --- | --- | --- |
| CCCN1CC2COc3ccc(C#N)cc3C2C1 (stereo not drawn) | 15.8 nM | 126 nM |
